US6737383B1, “Herbicidal oxadiazolidines” (priority 1999, dated 2004)

Key:
blackgrass = assay: Test B pre/postemergence blackgrass; type: in vivo, Alopecurus myosuroides
Procedure, shortened: (§1)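 Herbicidal effect was estimated by eye on a ten-point control scale after plants spent twelve to sixteen days in a greenhouse following soil or foliar treatment. Foliar sprays targeted plants at one to four leaves; all doses were formulated in a non-phytotoxic solvent with surfactant.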

surinam grass = assay: Test B pre/postemergence surinam grass; type: in vivo, Brachiaria decumbens
Procedure, shortened: as §1

cocklebur = assay: Test B pre/postemergence cocklebur; type: in vivo, Xanthium strumarium
Procedure, shortened: as §1

corn = assay: Test B pre/postemergence corn; type: in vivo, Zea mays
Procedure, shortened: as §1

crabgrass = assay: Test B pre/postemergence crabgrass; type: in vivo, Digitaria sanguinalis
Procedure, shortened: as §1

giant foxtail = assay: Test B pre/postemergence giant foxtail; type: in vivo, Setaria faberii
Procedure, shortened: as §1

pigweed = assay: Test B pre/postemergence pigweed; type: in vivo, Amaranthus retroflexus
Procedure, shortened: as §1

rape = assay: Test B pre/postemergence rape; type: in vivo, Brassica napus
Procedure, shortened: as §1

soybean = assay: Test B pre/postemergence soybean; type: in vivo, Glycine max
Procedure, shortened: as §1

sugar beet = assay: Test B pre/postemergence sugar beet; type: in vivo, Beta vulgaris
Procedure, shortened: as §1

wheat = assay: Test B pre/postemergence wheat; type: in vivo, Triticum aestivum
Procedure, shortened: as §1

purple nutsedge = assay: Test B pre/postemergence purple nutsedge; type: in vivo, Cyperus rotundus
Procedure, shortened: as §1

rice = assay: Test B flood test rice; type: in vivo, Oryza sativa
Procedure, shortened: (§2)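 Plants were grown to the 2-leaf stage before treatment with test chemical, then held in a greenhouse for twelve to sixteen days. Injury was visually rated against untreated controls on a 0–10 scale, where 0 is no effect and 10 is complete control.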

smallflower flatsedge = assay: Test B flood test smallflower flatsedge; type: in vivo, Cyperus difformis
Procedure, shortened: as §2

duck salad = assay: Test B flood test duck salad; type: in vivo, Heteranthera limosa
Procedure, shortened: as §2

bamyardgrass = assay: Test B flood test barnyardgrass; type: in vivo, Echinochloa crus-galli
Procedure, shortened: as §2

[1] = Postemergence, Rate 62 g/ha, scale 0 to 10, 0 is no effect, 10 is complete control
[2] = Postemergence, Rate 125 g/ha, scale of 0 to 10 where 0 is no effect and 10 is complete control
[3] = Preemergence, Rate 125 g/ha, scale of 0 to 10 where 0 is no effect and 10 is complete control
[4] = Preemergence, Rate 250 g/ha, scale 0 (no effect) to 10 (complete control)
[5] = Rate 62 g/ha, Preemergence, scale 0 to 10
[6] = Rate 250 g/ha, Postemergence, scale 0 to 10, 0 is no effect, 10 is complete control
[7] = Rate 500 g/ha, Postemergence, scale 0 to 10, 0 is no effect, 10 is complete control
[8] = Rate 500 g/ha, Preemergence, scale 0 to 10 (0 no effect, 10 complete control)
[9] = Pre-emergence, Rate 62 g/ha, scale 0 to 10, 0 is no effect, 10 is complete control
[10] = Rate 125 g/ha, Pre-emergence section (flood test species), scale 0 to 10, 0 no effect, 10 complete control
[11] = Rate 250 g/ha, Pre-emergence (flood test species), scale 0 to 10, 0 is no effect, 10 is complete control
[12] = Rate 500 g/ha, Pre-emergence section of Table B, 0 to 10 scale (0 no effect, 10 complete control)

## CC(C)N(C(=O)n1oc(=O)n(CCN(C)C(=O)c2ccccc2)c1=O)c1ccc(F)cc1 [Compound 741]
blackgrass; [1]
  Plant response rating, Blackgrass: 0
blackgrass; [2]
  Blackgrass plant response rating: 0
blackgrass; [3]
  Plant response rating, Blackgrass: 0
blackgrass; [4]
  Blackgrass plant response rating: 0
blackgrass; [5]
  Blackgrass plant response rating: 0
blackgrass; [6]
  Blackgrass plant response rating: 0
blackgrass; [7]
  Blackgrass plant response rating: 0
blackgrass; [8]
  Blackgrass plant response rating: 0
Surinam grass; [1]
  Plant response rating, B. signalgrass: 0
Surinam grass; [2]
  B. signalgrass plant response rating: 0
Surinam grass; Preemergence, Rate 62 g/ha, scale of 0 to 10 where 0 is no effect and 10 is complete control
  B. signalgrass plant response rating: 0
Surinam grass; [3]
  Plant response rating, B. signalgrass: 0
Surinam grass; [4]
  B. signalgrass plant response rating: 2
Surinam grass; [6]
  B. signalgrass plant response rating: 4
Surinam grass; [8]
  B. signalgrass plant response rating: 2
cocklebur; [1]
  Plant response rating, Cocklebur: 0
cocklebur; [2]
  Cocklebur plant response rating: 0
cocklebur; [3]
  Plant response rating, Cocklebur: 0
cocklebur; [4]
  Cocklebur plant response rating: 0
cocklebur; [5]
  Cocklebur plant response rating: 0
cocklebur; [6]
  Cocklebur plant response rating: 0
cocklebur; [7]
  Cocklebur plant response rating: 0
corn; [1]
  Plant response rating, Corn: 0
corn; [2]
  Corn plant response rating: 0
corn; [3]
  Plant response rating, Corn: 0
corn; [4]
  Corn plant response rating: 0
corn; [5]
  Corn plant response rating: 0
corn; [6]
  Corn plant response rating: 0
corn; [7]
  Corn plant response rating: 0
corn; [8]
  Corn plant response rating: 0
crabgrass; [1]
  Plant response rating, Crabgrass: 9
crabgrass; [3]
  Plant response rating, Crabgrass: 5
crabgrass; [4]
  Crabgrass plant response rating: 5
crabgrass; [5]
  Crabgrass plant response rating: 5
crabgrass; [6]
  Crabgrass plant response rating: 9
crabgrass; [8]
  Crabgrass plant response rating: 10
Giant foxtail; [1]
  Plant response rating, Giant foxtail: 0
Giant foxtail; [2]
  Giant foxtail plant response rating: 0
Giant foxtail; [3]
  Plant response rating, Giant foxtail: 2
Giant foxtail; [4]
  Giant foxtail plant response rating: 9
Giant foxtail; [5]
  Giant foxtail plant response rating: 0
Giant foxtail; [6]
  Giant foxtail plant response rating: 3
Giant foxtail; [7]
  Giant foxtail plant response rating: 4
Giant foxtail; [8]
  Giant foxtail plant response rating: 10
pigweed; [1]
  Plant response rating, Redroot pigweed: 3
pigweed; [2]
  Redroot pigweed plant response rating: 7
pigweed; [3]
  Plant response rating, Redroot pigweed: 0
pigweed; [4]
  Redroot pigweed plant response rating: 0
pigweed; [5]
  Redroot pigweed plant response rating: 0
pigweed; [6]
  Redroot pigweed plant response rating: 7
pigweed; [7]
  Redroot pigweed plant response rating: 7
pigweed; [8]
  Redroot pigweed plant response rating: 7
rape; [1]
  Plant response rating, Rape: 0
rape; [2]
  Rape plant response rating: 0
rape; [3]
  Plant response rating, Rape: 0
rape; [4]
  Rape plant response rating: 0
rape; [5]
  Rape plant response rating: 0
rape; [6]
  Rape plant response rating: 0
rape; [7]
  Rape plant response rating: 0
rape; [8]
  Rape plant response rating: 0
soybean; [1]
  Plant response rating, Soybean: 2
soybean; [2]
  Soybean plant response rating: 2
soybean; [3]
  Plant response rating, Soybean: 0
soybean; [4]
  Soybean plant response rating: 0
soybean; [5]
  Soybean plant response rating: 0
soybean; [6]
  Soybean plant response rating: 3
soybean; [7]
  Soybean plant response rating: 3
soybean; [8]
  Soybean plant response rating: 0
Sugar beet; [1]
  Plant response rating, Sugarbeets: 0
Sugar beet; [2]
  Sugarbeets plant response rating: 0
Sugar beet; [3]
  Plant response rating, Sugarbeets: 0
Sugar beet; [4]
  Sugarbeets plant response rating: 0
Sugar beet; [5]
  Sugarbeets plant response rating: 0
Sugar beet; [6]
  Sugarbeets plant response rating: 4
Sugar beet; [7]
  Sugarbeets plant response rating: 4
Sugar beet; [8]
  Sugarbeets plant response rating: 4
wheat; [1]
  Plant response rating, Wheat: 0
wheat; [2]
  Wheat plant response rating: 0
wheat; [3]
  Plant response rating, Wheat: 0
wheat; [4]
  Wheat plant response rating: 0
wheat; [5]
  Wheat plant response rating: 0
wheat; [6]
  Wheat plant response rating: 0
wheat; [7]
  Wheat plant response rating: 3
wheat; [8]
  Wheat plant response rating: 4
Purple nutsedge; [1]
  Plant response rating, Nutsedge: 0
Purple nutsedge; [2]
  Nutsedge plant response rating: 0
Purple nutsedge; [3]
  Plant response rating, Nutsedge: 0
Purple nutsedge; [4]
  Nutsedge plant response rating: 0
Purple nutsedge; [5]
  Nutsedge plant response rating: 0
Purple nutsedge; [6]
  Nutsedge plant response rating: 0
Purple nutsedge; [7]
  Nutsedge plant response rating: 0
Purple nutsedge; [8]
  Nutsedge plant response rating: 0
rice; [9]
  Rice plant response rating: 0
rice; [10]
  Rice plant response rating: 0
rice; [11]
  Rice plant response rating: 0
rice; [12]
  Rice plant response rating: 0
Smallflower flatsedge; [9]
  S. Flatsedge plant response rating: 0
Smallflower flatsedge; [10]
  S. Flatsedge plant response rating: 0
Smallflower flatsedge; [11]
  S. Flatsedge plant response rating: 0
Smallflower flatsedge; [12]
  S. Flatsedge plant response rating: 8
Duck salad; [9]
  Ducksalad plant response rating: 0
Duck salad; [10]
  Ducksalad plant response rating: 0
Duck salad; [11]
  Ducksalad plant response rating: 0
Duck salad; [12]
  Ducksalad plant response rating: 0
bamyardgrass; [9]
  Barnyardgrass plant response rating: 0
bamyardgrass; [10]
  Barnyardgrass plant response rating: 0
bamyardgrass; [11]
  Barnyardgrass plant response rating: 0
bamyardgrass; [12]
  Barnyardgrass plant response rating: 0
